Test results reported in patent US10118935B2, “Melampomagnolide B dimers” (priority 2014, dated 2018).

Legend:
OVCAR-8 = assay: NCI 60 cell line five dose, Ovarian Cancer
A549/ATCC = assay: NCI 60 cell line five dose, Non-Small Cell Lung Cancer
RXF 393 = assay: NCI 60 cell line five dose, Renal Cancer
CCRF-CEM = assay: NCI 60 cell line five dose, Leukemia
HS 578T = assay: NCI 60 cell line five dose, Breast Cancer; details: HS 578T
A498 = assay: NCI 60 cell line five dose, Renal Cancer
786-0 = assay: NCI 60 cell line five dose, Renal Cancer
LOX IMVI = assay: NCI 60 cell line five dose, Melanoma
HCC-2998 = assay: NCI 60 cell line five dose, Colon Cancer
SK-MEL-2 = assay: NCI 60 cell line five dose, Melanoma
UACC-62 = assay: NCI 60 cell line five dose, Melanoma
KM12 = assay: NCI 60 cell line five dose, Colon Cancer
RPMI-8226 = assay: NCI 60 cell line five dose, Leukemia
MDA-MB-468 = assay: NCI 60 cell line five dose, Breast Cancer
SW-620 = assay: NCI 60 cell line five dose, Colon Cancer
M14 = assay: NCI 60 cell line five dose, Melanoma
SR = assay: NCI 60 cell line five dose, Leukemia
NCI-H23 = assay: NCI 60 cell line five dose, Non-Small Cell Lung Cancer
BT-549 = assay: NCI 60 cell line five dose, Breast Cancer
HT29 = assay: NCI 60 cell line five dose, Colon Cancer
PC-3 = assay: NCI 60 cell line five dose, Prostate Cancer; details: for CC50: read-out: LC50
OVCAR-5 = assay: NCI 60 cell line five dose, Ovarian Cancer
K-562 = assay: NCI 60 cell line five dose, Leukemia
SF-295 = assay: NCI 60 cell line five dose, CNS Cancer

C=C1C(=O)O[C@H]2[C@H]1CC/C(COC(=O)NCCCCCNC(=O)OC/C1=C/CC[C@@]3(C)O[C@H]3[C@H]3OC(=O)C(=C)[C@@H]3CC1)=C\CC[C@@]1(C)O[C@@H]21 [JVM 2-76, bis(((1aR,7aS,10aS,10bS,E)-1a-Methyl-8-methylene-9-oxo-1a,2,3,6,7,7a,8,9,10a,10b-decahydrooxireno[2′,3′:9,10]cyclodeca[1,2-b]furan-5-yl)methyl)pentane-1,5-diyldicarbamate]
GI50 (OVCAR-8): 3.27 µM
TGI (OVCAR-8): 13.7 µM
CC50 (OVCAR-8; read-out: LC50): 61 µM
GI50 (A549/ATCC): 14.9 µM
TGI (A549/ATCC): 32.7 µM
CC50 (A549/ATCC; read-out: LC50): 71.7 µM
GI50 (RXF 393): 0.85 µM
TGI (RXF 393): 2.43 µM
CC50 (RXF 393; read-out: LC50): 6.35 µM
GI50 (CCRF-CEM): 0.28 µM
TGI (CCRF-CEM): 0.96 µM
CC50 (CCRF-CEM; read-out: LC50): > 100 µM
GI50 (HS 578T): 2.91 µM
TGI (HS 578T): 13.0 µM
CC50 (HS 578T; read-out: LC50): > 100 µM
GI50 (A498): 6.24 µM
TGI (A498): 19.4 µM
CC50 (A498; read-out: LC50): 47.5 µM
GI50 (786-0): 1.57 µM
TGI (786-0): 3.17 µM
CC50 (786-0; read-out: LC50): 6.39 µM
GI50 (LOX IMVI): 0.46 µM
TGI (LOX IMVI): 1.85 µM
CC50 (LOX IMVI; read-out: LC50): 5.82 µM
GI50 (HCC-2998): 6.71 µM
TGI (HCC-2998): 20.7 µM
CC50 (HCC-2998; read-out: LC50): 53.9 µM
GI50 (SK-MEL-2): 2.01 µM
TGI (SK-MEL-2): 3.96 µM
CC50 (SK-MEL-2; read-out: LC50): 7.81 µM
GI50 (UACC-62): 1.41 µM
TGI (UACC-62): 3.16 µM
CC50 (UACC-62; read-out: LC50): 7.04 µM
CC50 (NCI-H322M): > 100 µM
GI50 (KM12): 6.53 µM
TGI (KM12): 21.0 µM
CC50 (KM12; read-out: LC50): 54.2 µM
GI50 (RPMI-8226): 0.78 µM
TGI (RPMI-8226): 4.16 µM
CC50 (RPMI-8226; read-out: LC50): > 100 µM
GI50 (MDA-MB-468): 1.06 µM
TGI (MDA-MB-468): 3.96 µM
CC50 (MDA-MB-468; read-out: LC50): 24.7 µM
GI50 (SW-620): 0.43 µM
TGI (SW-620): 1.75 µM
CC50 (SW-620; read-out: LC50): 5.14 µM
GI50 (M14): 1.71 µM
TGI (M14): 3.74 µM
CC50 (M14; read-out: LC50): 8.2 µM
GI50 (SR): 0.38 µM
TGI (SR): 2.30 µM
CC50 (SR; read-out: LC50): > 100 µM
GI50 (NCI-H23): 2.66 µM
TGI (NCI-H23): 7.71 µM
CC50 (NCI-H23; read-out: LC50): 45.5 µM
GI50 (BT-549): 1 µM
TGI (BT-549): 2.23 µM
CC50 (BT-549; read-out: LC50): 4.96 µM
GI50 (HT29): 0.51 µM
TGI (HT29): 1.78 µM
CC50 (HT29; read-out: LC50): 4.85 µM
GI50 (PC-3): 3.79 µM
TGI (PC-3): 15.6 µM
CC50 (PC-3): 49.4 µM
GI50 (OVCAR-5): 1.67 µM
TGI (OVCAR-5): 3.53 µM
CC50 (OVCAR-5; read-out: LC50): 7.47 µM
GI50 (K-562): 0.56 µM
TGI (K-562): 16.1 µM
CC50 (K-562; read-out: LC50): > 100 µM
GI50 (SF-295): 11.1 µM
TGI (SF-295): 26.9 µM
CC50 (SF-295; read-out: LC50): 65.2 µM

C=C1C(=O)O[C@H]2[C@H]1CC/C(COC(=O)CCC(=O)NCCCCCCCCNC(=O)CCC(=O)OC/C1=C/CC[C@@]3(C)O[C@H]3[C@H]3OC(=O)C(=C)[C@@H]3CC1)=C\CC[C@@]1(C)O[C@@H]21 [JVM 2-87, bis(((1aR,7aS,10aS,10bS,E)-1a-Methyl-8-methylene-9-oxo-1a,2,3,6,7,7a,8,9,10a,1b-decahydrooxireno[2′,3′:9,10]cyclodeca[1,2-b]furan-5-yl)methyl)4,4′-(octane-1,8-diylbis(azanediyl))bis(4-oxobutanoate)]
GI50 (OVCAR-8): 2.9 µM
TGI (OVCAR-8): 13.3 µM
GI50 (A549/ATCC): 18.5 µM
TGI (A549/ATCC): 40.7 µM
GI50 (RXF 393): 0.85 µM
TGI (RXF 393): 2.61 µM
GI50 (CCRF-CEM): 0.32 µM
TGI (CCRF-CEM): 1.48 µM
GI50 (HS 578T): 3.88 µM
TGI (HS 578T): 29.5 µM
GI50 (A498): 6.72 µM
TGI (A498): 20.8 µM
GI50 (786-0): 1.62 µM
TGI (786-0): 3.29 µM
GI50 (LOX IMVI): 1.37 µM
TGI (LOX IMVI): 2.76 µM
GI50 (HCC-2998): 4.12 µM
TGI (HCC-2998): 16.7 µM
GI50 (SK-MEL-2): 2.25 µM
TGI (SK-MEL-2): 4.59 µM
GI50 (UACC-62): 1.97 µM
TGI (UACC-62): 4.20 µM
CC50 (NCI-H322M): 60.5 µM
GI50 (KM12): 9.46 µM
TGI (KM12): 22.9 µM
GI50 (RPMI-8226): 1.67 µM
TGI (RPMI-8226): 5.70 µM
GI50 (MDA-MB-468): 1.33 µM
TGI (MDA-MB-468): 3.84 µM
GI50 (SW-620): 1.22 µM
TGI (SW-620): 2.97 µM
GI50 (M14): 1.79 µM
TGI (M14): 3.79 µM
GI50 (SR): 0.41 µM
TGI (SR): 2.10 µM
GI50 (NCI-H23): 2.99 µM
TGI (NCI-H23): 8.25 µM
GI50 (BT-549): 1.23 µM
TGI (BT-549): 2.51 µM
GI50 (HT29): 1.64 µM
TGI (HT29): 3.12 µM
GI50 (PC-3): 3.64 µM
TGI (PC-3): 13.7 µM
CC50 (PC-3): 40.7 µM
GI50 (OVCAR-5): 1.82 µM
TGI (OVCAR-5): 3.64 µM
GI50 (K-562): 0.97 µM
TGI (K-562): 12.9 µM
GI50 (SF-295): 15.1 µM
TGI (SF-295): 29.3 µM

C=C1C(=O)O[C@H]2[C@H]1CC/C(COC(=O)CCC(=O)NCCCCCCCCCNC(=O)CCC(=O)OC/C1=C/CC[C@@]3(C)O[C@H]3[C@H]3OC(=O)C(=C)[C@@H]3CC1)=C\CC[C@@]1(C)O[C@@H]21 [JVM 2-92, bis(((1aR,7aS,10aS,10bS,E)-1a-Methyl-8-methylene-9-oxo-1a,2,3,6,7,7a,8,9,10a,10b-decahydrooxireno[2′,3′:9,10]cyclodeca[1,2-b]furan-5-yl)methyl)4,4′-(nonane-1,9-diylbis(azanediyl))bis (4-oxobutanoate)]
GI50 (OVCAR-8): 3.24 µM
TGI (OVCAR-8): 16.5 µM
GI50 (A549/ATCC): 13.8 µM
TGI (A549/ATCC): 33.7 µM
GI50 (RXF 393): 1.01 µM
TGI (RXF 393): 2.50 µM
GI50 (CCRF-CEM): 0.28 µM
TGI (CCRF-CEM): 1.00 µM
GI50 (HS 578T): 2.99 µM
TGI (HS 578T): 24.9 µM
GI50 (A498): 2.72 µM
TGI (A498): 8.30 µM
GI50 (786-0): 1.49 µM
TGI (786-0): 3.00 µM
GI50 (LOX IMVI): 0.37 µM
TGI (LOX IMVI): 1.36 µM
GI50 (HCC-2998): 2.25 µM
TGI (HCC-2998): 4.70 µM
GI50 (SK-MEL-2): 2.12 µM
TGI (SK-MEL-2): 4.15 µM
GI50 (UACC-62): 1.69 µM
TGI (UACC-62): 3.78 µM
CC50 (NCI-H322M): 61.3 µM
GI50 (KM12): 4.6 µM
TGI (KM12): 17.1 µM
GI50 (RPMI-8226): 0.5 µM
TGI (RPMI-8226): 3.33 µM
GI50 (MDA-MB-468): 0.98 µM
TGI (MDA-MB-468): 2.64 µM
GI50 (SW-620): 0.54 µM
TGI (SW-620): 2.07 µM
GI50 (M14): 1.65 µM
TGI (M14): 3.64 µM
GI50 (SR): 0.33 µM
TGI (SR): 1.17 µM
GI50 (NCI-H23): 2.23 µM
TGI (NCI-H23): 5.13 µM
GI50 (BT-549): 0.66 µM
TGI (BT-549): 2.03 µM
GI50 (HT29): 1.33 µM
TGI (HT29): 2.75 µM
GI50 (PC-3): 2.53 µM
TGI (PC-3): 7.31 µM
GI50 (OVCAR-5): 1.7 µM
TGI (OVCAR-5): 3.47 µM
GI50 (K-562): 0.45 µM
TGI (K-562): 3.21 µM
GI50 (SF-295): 7.68 µM
TGI (SF-295): 21.9 µM
